Measurements: article PMC11823381, “Identification of novel inhibitors of dengue viral NS5 RNA-dependent RNA polymerase through molecular docking, biological activity evaluation and molecular dynamics simulations” (Journal of Enzyme Inhibition and Medicinal Chemistry, 2025)
Where “and” joins values, the source holds several entries; their conditions need not be identical. Identical values can stand only once. Like-named read-outs stand apart in the source and are kept apart here.

Tests used:
[1] = tested on: DENV2 NGC strain; assay: Cell-based antiviral assay (Viral ToxGlo, CPE) against DENV-NGC; set-up: species or system dengue virus (DENV2); settings: for IC50: mean ± SD of two individual experiments; for SI (selectivity index): ratio of CC50 to IC50
Protocol: (§1) In this study, the DENV2 NGC strain (provided by Robert B. Tesh, University of Texas Medical Branch) and BHK-21 cells (Baby hamster kidney cells, ATCC CCL10) were used for cell-based antiviral evaluations. Viral stocks were prepared by infecting C6/36 cells (Aedes albopictus clone C6/36; ATCC CRL166), cultured in RPMI 1640 medium (Invitrogen, Burlington, ON, Canada) containing 2% foetal bovine serum (FBS) (Sigma-Aldrich, Shanghai, China) and 0.5% penicillin-streptomycin. The infected cultures were incubated at 28 °C with 5% CO2 for seven days until cytopathic effects (CPE) were detected. Supernatants were collected by centrifuging at 2,000 g for 5 min to remove debris, mixed with 20% FBS, and stored in aliquots at −80 °C. Viral titres were quantified using the Promega Viral ToxGlo assay (Fisher Scientific, Ottawa, ON, Canada) on BHK-21 cells, and the 50% tissue culture infective dose (TCID50) was determined following the manufacturer’s instructions. To test antiviral activity, BHK-21 cells were seeded in 96-well plates at 2,500 cells per well using Dulbecco’s modified Eagle’s medium (DMEM) with 10% FBS and 1% penicillin-streptomycin. After overnight incubation at 37 °C, cells were exposed to 100 TCID50 of DENV for 90 min. Following infection, the medium was replaced with DMEM supplemented with 2.5% FBS and different concentrations of the test compounds. Cultures were maintained at 37 °C with 5% CO2 for 3 days. Fresh Viral Tox reagent was prepared, and 100 μL was added to each well before incubating the plates for at least 10 min. Luminescence readings were taken using a 1450 MicroBeta TriLux scintillation counter (PerkinElmer). Data were analysed by plotting luminescence values against logarithmic compound concentrations, and nonlinear regression was carried out using GraphPad Prism 10.0 software.

[2] = Cytotoxicity (CC50) in the cell-based assay; settings: hamster, BHK-21 cells
Protocol: as §1

[3] = Dengue virus, DENV2, BHK-21, 72 h, read-out: DENV-NGC-IC50, BHK-21 cells, 100 TCID50 of DENV, 3 days
[4] = BHK-21 cells, 100 TCID50 of DENV, 3 days, read-out: DENV-NGC-IC50
[5] = Dengue virus, DENV2, BHK-21, 72 h, BHK-21 cells, 100 TCID50 of DENV, 3 days, read-out: DENV-NGC-IC50

Cc1[nH]c2ccccc2c1C(=O)C(=O)NC[C@@H]1COc2ccccc2O1 [Compound D11]
IC50 [1, 3]: > 66.7 µM | CC50 at 3 days [2]: 87.3 ± 2.75 µM

O=C(Cn1c(=O)sc2ccccc21)Nc1nnc(SCc2ccccc2)s1 [Compound D5]
IC50 [1, 4]: 28.5 µM and > 66.7 µM | CC50 at 3 days [2]: > 200 µM

CC(=O)Nc1ccc(S(=O)(=O)N[C@]2(C(F)(F)F)NC(=O)N(c3ccc(Cl)cc3)C2=O)cc1 [Compound D9]
IC50 [1, 5]: > 200 µM

Nc1ncnc2c([C@@H]3N[C@H](CO)[C@@H](O)[C@H]3O)c[nH]c12 [BCX4430, Galidesivir, reference compound]
IC50 [1, 5]: 41.6 ± 2.95 µM | SI (selectivity index) [1]: 2.40 | CC50 at 3 days [2]: 100 ± 12.5 µM

NC(=O)COc1ccc([C@@H]2CC(=O)Nc3nc(SCc4ccc(Cl)cc4)[nH]c(=O)c32)cc1 [Compound D14]
IC50 [1, 4]: 31.2 µM and > 200 µM | CC50 at 3 days [2]: > 200 µM

O=C(O)CCCNC(=O)Cn1nc2c(cc1=O)CCCCC2 [Compound D18]
IC50 [1, 5]: > 200 µM

O=C(Cn1c(=O)sc2ccccc21)Nc1nnc(SCC(=O)N2CCOCC2)s1 [Compound D7]
IC50 [1, 5]: > 200 µM

O=c1c2ccccc2[nH]c(=S)n1C[C@H]1CC[C@H](C(=O)NC[C@@H]2COc3ccccc3O2)CC1 [Compound D19]
IC50 [1, 5]: > 200 µM

N#Cc1ccc(C(=O)N2CCC[C@H]2c2nc(CCOCC3CC3)no2)cc1 [Compound D23]
IC50 [1, 4]: > 200 µM | IC50 [1, 5]: 123 µM | CC50 at 3 days [2]: > 200 µM

CN(c1ccccc1)c1nc(=O)n(CC(=O)Nc2ccc(Br)cc2)c2ccccc12 [Compound D21]
IC50 [1, 5]: > 200 µM

CCCC[C@@](CCC(=O)O)(C(=O)OCC)c1csc(Nc2ccc(C)cc2)n1 [Compound D3]
IC50 [1, 5]: > 66.7 µM

NC(=O)C1CCN(C(=O)CCCSc2nc(-c3ccco3)cc(C(F)(F)F)n2)CC1 [Compound D6]
IC50 [1, 5]: > 200 µM

O=C([C@@H]1C[C@H](Oc2ccccc2)CN1C(=O)CCc1nc2ccccc2s1)N1CCCC1 [Compound D24]
IC50 [1, 3]: > 66.7 µM | CC50 at 3 days [2]: > 200 µM

O=C(CCSc1nc(-c2ccc3c(c2)OCO3)cc(C(F)(F)F)n1)NCCN1CCOCC1 [Compound D4]
IC50 [1, 5]: > 200 µM

COc1cccc(S(=O)(=O)NC(=O)c2cc(-c3ccc(C#CCO)s3)c(OC)cc2OC)c1 [Compound 27, reference compound]
IC50 [1, 5]: 19.7 ± 1.12 µM | SI (selectivity index) [1]: 1.37 | CC50 at 3 days [2]: 26.9 ± 3.02 µM

Cc1ccc(NC(=O)[C@@H]2[C@H]3C(=O)N(C[C@@H]4CCCO4)[C@H](C(=O)NC4CCCCC4)[C@]34C=C[C@H]2O4)cc1 [Compound D10]
IC50 [1, 5]: > 200 µM

O=C1C[C@@H](NCCc2c[nH]c3ccccc23)C(=O)N1c1ccc(Oc2ccccc2)cc1 [Compound D12]
IC50 [1, 5]: 47.3 ± 11.8 µM | SI (selectivity index) [1]: 3.45 | CC50 at 3 days [2]: 163 ± 14.1 µM

O=C(COc1ccccc1)Nc1nnc(SCc2cc(=O)n3cc(Cl)ccc3n2)s1 [Compound D16]
IC50 [1, 5]: > 200 µM

CN(Cc1ccccc1)C(=O)c1snc2c(=O)n(Cc3ccccc3)c(=O)[nH]c12 [Compound D1]
IC50 [1, 5]: 13.1 ± 1.17 µM | SI (selectivity index) [1]: 2.87 | CC50 at 3 days [2]: 37.5 ± 2.03 µM

O=C(O)[C@H](NC(=O)[C@@H]1CC=CC[C@H]1C(=O)c1ccccc1)c1ccccc1 [Compound D26]
IC50 [1, 5]: > 200 µM

C[C@@H](Sc1nnc2c3ccccc3nc(-c3ccccc3)n12)C(=O)NC[C@H]1CCCO1 [Compound D17]
IC50 [1, 5]: 22.2 ± 7.25 µM | SI (selectivity index) [1]: 2.38 | CC50 at 3 days [2]: 53 ± 10.5 µM

CCOc1c(Nc2ccc(C#N)cc2)c(=O)c1=O [Compound D15]
IC50 [1, 5]: > 200 µM

O=C(Nc1ccc(F)cc1F)N1CCC[C@@H]1c1nc2cc(-c3ccccc3F)ccc2o1 [Compound D8]
IC50 [1, 5]: 14.8 ± 7.76 µM | SI (selectivity index) [1]: 6.71 | CC50 at 3 days [2]: 99.2 ± 1.93 µM
